Data reported in US10722514B2 (FLX Bio, Inc., priority 2017, dated 2020).

The compounds below were run against T1, recombinant full-length USP7 (Homo sapiens, UniProt Q93009) (assay: USP7-mediated ubiquitin-rhodamine cleavage assay). Details: recombinant full-length USP7 62 pM; ubiquitin-rhodamine 100 nM; 30-minute incubation with compound, 1 hour reaction at room temperature; read-out: Potency: USP7 IC50.
T1 construct: A 25 μl reaction volume containing recombinant full-length USP7 (62 pM)
Format: biochemical
Procedure, shortened: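 Rhodamine fluorescence read-out after acetic acid stop; IC50 by 4-parameter nonlinear regression. Enzyme at 62 pM, substrate ubiquitin-rhodamine 100 nM final, 1 h at room temperature in the dark, after 30 min compound preincubation. Buffer: HEPES pH 7.3, NaCl, TCEP, BSA; 1% DMSO.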

T1 sequence (Q93009 whole entry): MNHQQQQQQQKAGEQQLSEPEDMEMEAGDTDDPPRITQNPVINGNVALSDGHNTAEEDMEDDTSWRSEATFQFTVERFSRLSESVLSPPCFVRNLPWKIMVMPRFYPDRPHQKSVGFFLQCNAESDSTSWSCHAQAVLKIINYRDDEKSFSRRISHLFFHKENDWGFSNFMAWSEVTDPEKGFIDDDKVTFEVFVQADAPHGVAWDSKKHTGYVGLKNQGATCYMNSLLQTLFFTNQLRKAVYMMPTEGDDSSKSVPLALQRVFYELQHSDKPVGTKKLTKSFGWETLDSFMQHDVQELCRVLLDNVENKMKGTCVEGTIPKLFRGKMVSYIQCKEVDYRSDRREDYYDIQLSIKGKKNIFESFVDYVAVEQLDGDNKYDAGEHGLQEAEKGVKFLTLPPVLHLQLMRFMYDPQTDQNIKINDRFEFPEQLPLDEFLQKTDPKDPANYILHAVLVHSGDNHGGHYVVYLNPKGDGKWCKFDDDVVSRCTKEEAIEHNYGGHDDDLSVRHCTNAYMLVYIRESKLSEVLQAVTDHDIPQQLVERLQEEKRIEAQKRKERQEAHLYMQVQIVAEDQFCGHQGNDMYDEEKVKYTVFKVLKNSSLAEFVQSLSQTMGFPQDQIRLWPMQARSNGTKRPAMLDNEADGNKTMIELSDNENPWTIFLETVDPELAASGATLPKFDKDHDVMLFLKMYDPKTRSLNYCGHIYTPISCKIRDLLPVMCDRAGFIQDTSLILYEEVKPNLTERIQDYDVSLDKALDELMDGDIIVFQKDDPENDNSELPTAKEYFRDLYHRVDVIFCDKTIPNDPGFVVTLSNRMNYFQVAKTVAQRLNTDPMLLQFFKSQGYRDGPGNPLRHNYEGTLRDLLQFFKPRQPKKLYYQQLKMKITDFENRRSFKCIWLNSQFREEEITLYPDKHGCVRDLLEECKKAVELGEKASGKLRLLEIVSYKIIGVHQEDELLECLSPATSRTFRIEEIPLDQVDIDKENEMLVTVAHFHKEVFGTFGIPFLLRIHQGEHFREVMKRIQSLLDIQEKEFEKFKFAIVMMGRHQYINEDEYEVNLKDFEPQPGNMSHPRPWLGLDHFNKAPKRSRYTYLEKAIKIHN

IC50 [µM] | Compound
1 to 10 | Cc1cc(Cl)cc(-c2ncnc3cc(CN4C(=O)C5CC5C4=O)sc23)c1OC1CCNCC1 (stereo not shown) [Example 231, 3-((4-(5-Chloro-3-methyl-2-(piperidin-4-yloxy)phenyl)thieno[3,2-d]pyrimidin-6-yl)methyl)-3-azabicyclo[3.1.0]hexane-2,4-dione]
1 to 10 | Cc1cc(Cl)cc(-c2ncnc3cc(CN4C(=O)C5CCCN5C4=O)sc23)c1O[C@@H]1CNC[C@@H]1F (stereo partly drawn) [Example 160, 2-((4-(5-Chloro-2-(((3R,4S)-4-fluoropyrrolidin-3-yl)oxy)-3-methylphenyl)thieno[3,2-d]pyrimidin-6-yl)methyl)tetrahydro-1H-pyrrolo[1,2-c]imidazole-1,3(2H)-dione]
< 1 | Cc1cc(Cl)cc(-c2ccnc3cc(Cn4c(=O)cc[nH]c4=O)sc23)c1OC1CCNCC1 [Example 184, 3-((7-(5-Chloro-3-methyl-2-(piperidin-4-yloxy)phenyl)thieno[3,2-b]pyridin-2-yl)methyl)pyrimidine-2,4(1H,3H)-dione]
< 1 | CCN1CCC(Oc2c(C)cc(Cl)cc2-c2ccnc3cc(CN4C(=O)CCC4=O)sc23)CC1 [Example 176, 1-((7-(5-Chloro-2-((1-ethylpiperidin-4-yl)oxy)-3-methylphenyl)thieno[3,2-b]pyridin-2-yl)methyl)pyrrolidine-2,5-dione]
< 1 | O=C1CCC(=O)N1Cc1cc2nccc(-c3cc(Cl)cc(Cl)c3O[C@@H]3CNC[C@@H]3F)c2s1 [Example 123, 1-((7-(3,5-Dichloro-2-(((3R,4S)-4-fluoropyrrolidin-3-yl)oxy)phenyl)thieno[3,2-b]pyridin-2-yl)methyl)pyrrolidine-2,5-dione]
1 to 10 | Cc1cc(Cl)cc(-c2ccnc3cc(CN4C(=O)CCC4=O)sc23)c1OC1CNCCOC1 (stereo not shown) [Example 271, 1-((7-(2-((1,4-Oxazepan-6-yl)oxy)-5-chloro-3-methylphenyl)thieno[3,2-b]pyridin-2-yl)methyl)pyrrolidine-2,5-dione]
10 to 30 | 1-(7-(2-((3-Azabicyclo[3.1.0]hexan-6-yl)methoxy)-5-chloro-3-methylphenyl)thieno[3,2-b]pyridin-2-yl)propan-1-ol [Example 88]
10 to 30 | Cc1cc(Cl)cc(-c2ncnc3cc(Cn4c(C(F)(F)F)cccc4=O)sc23)c1O[C@@H]1CNC[C@@H]1F [Example 148, 1-((4-(5-Chloro-2-(((3R,4S)-4-fluoropyrrolidin-3-yl)oxy)-3-methylphenyl)thieno[3,2-d]pyrimidin-6-yl)methyl)-6-(trifluoromethyl)pyridin-2(1H)-one]
10 to 30 | CCC(O)c1cc2nccc(-c3cc(Cl)cc(C)c3OCC3CN(C)C3)c2s1 (stereo not shown) [Example 3, 1-(7-(5-Chloro-3-methyl-2-((1-methylazetidin-3-yl)methoxy)phenyl)thieno[3,2-b]pyridin-2-yl)propan-1-ol]
< 1 | Cc1cc(Cl)cc(-c2ccnc3cc(CN4C(=O)C5C(C4=O)C5(C)C)sc23)c1OC1CNCC(C)(C)C1 [Example 362, 3-[[7-[5-chloro-2-[[(3S)-5,5-dimethyl-3-piperidyl]oxy]-3-methyl-phenyl]thieno[3,2-b]pyridin-2-yl]methyl-6,6-dimethyl-3-azabicyclo[3.1.0]hexane-2,4-dione]
< 1 | Cc1cc(Cl)cc(-c2ccnc3cc(CN4C(=O)CCC4=O)sc23)c1O[C@@H]1C[C@H]2CN[C@@H]1C2 [Example 298, 1-[[7-[2-[[(1S,4R,5R)-3-azabicyclo[2.2.1]heptan-5-yl]oxy]-5-chloro-3-methyl-phenyl]thieno[3,2-b]pyridin-2-yl]methyl]pyrrolidine-2,5-dione]
< 1 | N#Cc1cc(Cl)c(O[C@@H]2CNC[C@@H]2F)c(-c2ccnc3cc(CN4C(=O)CCC4=O)sc23)c1 [Example 122, 3-Chloro-5-(2-((2,5-dioxopyrrolidin-1-yl)methyl)thieno[3,2-b]pyridin-7-yl)-4-(((3R,4S)-4-fluoropyrrolidin-3-yl)oxy)benzonitrile]
< 1 | Cc1cc(Cl)cc(-c2ccnc3cc(CN4C(=O)C5C(C4=O)C5(C)C)sc23)c1O[C@@H]1CCNC[C@H]1F (stereo partly drawn) [Example 294, 3-[[7-[5-chloro-2-[[(3R,4R)-3-fluoro-4-piperidyl]oxy]-3-methyl-phenyl]thieno[3,2-b]pyridin-2-yl]methyl]-6,6-dimethyl-3-azabicyclo[3.1.0]hexane-2,4-dione; 2,2,2-trifluoroacetic acid]
10 to 30 | Cc1cc(F)cc(-c2ccnc3cc(CO)sc23)c1O[C@H]1CCCNC1 [Example 238, (S)-(7-(5-Fluoro-3-methyl-2-(piperidin-3-yloxy)phenyl)thieno[3,2-b]pyridin-2-yl)methanol]

Same assay, conditions: recombinant full-length USP7 62 pM; ubiquitin-rhodamine 100 nM; 30-minute incubation, 1 hour reaction at room temperature; read-out: Potency (USP7 IC50)

IC50 [µM] | Compound
< 1 | Cc1cc(Cl)cc(-c2ccnc3cc(Cn4c(=O)ccn(CC(F)(F)F)c4=O)sc23)c1OC1CC2(COCCN2)C1 (stereo not shown) [Example 698, 3-[[7-[5-chloro-3-methyl-2-(8-oxa-5-azaspiro[3.5]nonan-2-yloxy)phenyl]thieno[3,2-b]pyridin-2-yl]methyl]-1-(2,2,2-trifluoroethyl)pyrimidine-2,4-dione]

Same assay, conditions: recombinant full-length USP7 62 pM; ubiquitin-rhodamine 100 nM; 30-minute pre-incubation, 1 hour reaction at room temperature; read-out: Potency (USP7 IC50)

IC50 [µM] | Compound
< 1 | Cc1cc(Cl)cc(-c2ccnc3cc(Cn4c(=O)ccn(CC(F)(F)F)c4=O)sc23)c1OCC1COCCN1 (stereo not shown) [Example 646, 3-[[7-[5-chloro-3-methyl-2-(morpholin-3-ylmethoxy)phenyl]thieno[3,2-b]pyridin-2-yl]methyl]-1-(2,2,2-trifluoroethyl)pyrimidine-2,4-dione; 2,2,2-trifluoroacetic acid]
< 1 | Cc1cc(Cl)cc(-c2ccnc3cc(Cn4c(=O)ccn(CC(F)(F)F)c4=O)sc23)c1O[C@H]1CNC[C@@H]1C [Example 567, 3-[[7-[5-chloro-3-methyl-2-[(3R,4S)-4-methylpyrrolidin-3-yl]oxy-phenyl]thieno[3,2-b]pyridin-2-yl]methyl]-1-(2,2,2-trifluoroethyl)pyrimidine-2,4-dione]
< 1 | Cc1cc(Cl)cc(-c2ccnc3cc(Cn4c(=O)ccn(C)c4=O)sc23)c1OC1CN2CCC1C2 [Example 530, 3-[[7-[2-[[(1R,3S,4S)-1-azabicyclo[2.2.1]heptan-3-yl]oxy]-5-chloro-3-methyl-phenyl]thieno[3,2-b]pyridin-2-yl]methyl]-1-methyl-pyrimidine-2,4-dione]
< 1 | Cc1cc(Cl)cc(-c2ccnc3cc(Cn4c(=O)ccn(CC(F)(F)F)c4=O)sc23)c1OC1(C)CCNC1 (stereo not shown) [Example 663, 3-[[7-[5-chloro-3-methyl-2-(3-methylpyrrolidin-3-yl)oxy-phenyl]thieno[3,2-b]pyridin-2-yl]methyl]-1-(2,2,2-trifluoroethyl)pyrimidine-2,4-dione]
< 1 | Cc1cc(Cl)cc(-c2ccnc3cc(Cn4c(=O)ccn(C)c4=O)sc23)c1O[C@H]1CCNC[C@@H]1F [Example 569]
< 1 | Cc1cc(Cl)cc(-c2ccnc3cc(Cn4c(=O)ccn(C)c4=O)sc23)c1O[C@@H]1CCN[C@H]1C(=O)O [Example 602, (2R,3R)-3-[4-chloro-2-methyl-6-[2-[(3-methyl-2,6-dioxo-pyrimidin-1-yl)methyl]thieno[3,2-b]pyridin-7-yl]phenoxy]pyrrolidine-2-carboxylic acid]
< 1 | Cc1cc(Cl)cc(-c2ccnc3cc(Cn4c(=O)ccn(CC(F)(F)F)c4=O)sc23)c1OC1CCCCC1 [Example 665, 3-[[7-[5-chloro-2-(cyclohexoxy)-3-methyl-phenyl]thieno[3,2-b]pyridin-2-yl]methyl]-1-(2,2,2-trifluoroethyl)pyrimidine-2,4-dione]
